For one assay, the target named is T1, IRAK1 (Homo sapiens, UniProt P51617).
T1 construct: His-TEV-IRAK1 (194-712); His (N); TEV cleavage site (N)
Description: IRAK1 enzymatic assay (ADP-Glo luminescence). In kind it is biochemical. The settings on record: purified human recombinant His-TEV-IRAK1 (194-712). In outline:
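Luminescent ADP-Glo read-out of ATP turnover by purified His-TEV-IRAK1 (194-712) at 0.3 μg/ml after a 2-hour RT reaction. Compounds, serially diluted from 10 μM to 0.5 nM, were preincubated with enzyme 15 minutes in Hepes pH 7.0 buffer with MgCl2, DTT, EGTA and Triton X-100.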

In the next assay the target is T2, IRAK4 (Homo sapiens, UniProt Q9NWZ3).
T2 construct: His-TEV-IRAK4 (1-460); His (N); TEV cleavage site (N)
T2 sequence (Q9NWZ3 1-460): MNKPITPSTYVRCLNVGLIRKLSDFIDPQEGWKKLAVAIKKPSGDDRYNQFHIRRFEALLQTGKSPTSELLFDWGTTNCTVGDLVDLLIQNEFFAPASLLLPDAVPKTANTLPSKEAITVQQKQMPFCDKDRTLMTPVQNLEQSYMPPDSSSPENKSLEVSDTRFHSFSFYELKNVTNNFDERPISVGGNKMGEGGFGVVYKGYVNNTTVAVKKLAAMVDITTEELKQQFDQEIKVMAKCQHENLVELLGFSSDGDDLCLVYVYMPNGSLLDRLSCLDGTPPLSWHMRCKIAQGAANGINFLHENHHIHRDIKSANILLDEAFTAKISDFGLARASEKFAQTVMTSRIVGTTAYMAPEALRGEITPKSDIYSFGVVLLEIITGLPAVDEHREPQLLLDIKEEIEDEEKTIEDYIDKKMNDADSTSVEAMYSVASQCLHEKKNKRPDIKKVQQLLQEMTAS
Description: IRAK4 enzymatic assay (ADP-Glo luminescence). In kind it is biochemical. The settings on record: purified human recombinant His-TEV-IRAK4 (1-460), ATP 2 μM. The gist of the method:
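ADP-Glo luminescence read-out after a 2 h RT kinase reaction with 2 μM ATP and 300 nM biotinylated STK1 peptide. Enzyme (His-TEV-IRAK4 1-460, 0.3 μg/ml) first incubated 15 min with serially diluted compounds (10 μM–0.5 nM) in 50 mM Hepes pH 7.0, 10 mM MgCl2, 5 mM MnCl2.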
Background: ADP-Glo first removes unused ATP, then detects ADP through luciferase.

The IC50 is the concentration needed to halve the response being measured.

T1 sequence (P51617 194-712): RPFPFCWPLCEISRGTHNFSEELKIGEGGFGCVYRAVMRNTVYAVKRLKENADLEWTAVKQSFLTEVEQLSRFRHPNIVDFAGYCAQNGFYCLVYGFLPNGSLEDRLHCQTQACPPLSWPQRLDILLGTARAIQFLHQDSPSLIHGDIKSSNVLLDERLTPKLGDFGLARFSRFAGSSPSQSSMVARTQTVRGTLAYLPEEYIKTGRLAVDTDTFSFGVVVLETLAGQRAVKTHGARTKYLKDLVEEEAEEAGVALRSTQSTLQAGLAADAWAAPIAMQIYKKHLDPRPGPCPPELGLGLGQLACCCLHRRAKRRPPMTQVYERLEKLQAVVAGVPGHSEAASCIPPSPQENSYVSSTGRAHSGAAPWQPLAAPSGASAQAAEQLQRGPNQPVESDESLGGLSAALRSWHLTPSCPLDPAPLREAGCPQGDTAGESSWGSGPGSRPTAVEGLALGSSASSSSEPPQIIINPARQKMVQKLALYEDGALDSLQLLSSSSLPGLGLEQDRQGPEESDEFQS

Regarding `O=C(/N=c1\[nH]c2cc(N3CCCOC3=O)ccc2n1C1CC(F)(F)C1)c1cccc(C(F)(F)F)c1` [Compound 156, (E)-N-(1-(3,3-difluorocyclobutyl)-5-(2-oxo-1,3-oxazinan-3-yl)-1H-benzo[d]imidazol-2(3H)-ylidene)-3-(trifluoromethyl)benzamide], the IC50 at IRAK1 was 100 to 1000 nM; at IRAK4 it was not above 100 nM.
On to `O=C(/N=c1\[nH]c2cc(N3CCCOC3=O)ccc2n1C1CCS(=O)(=O)C1)c1cccc(C(F)(F)F)c1` (centres unmarked) [Compound 157, (E)-N-(1-(1,1-dioxidotetrahydrothiophen-3-yl)-5-(2-oxo-1,3-oxazinan-3-yl)-1H-benzo[d]imidazol-2(3H)-ylidene)-3-(trifluoromethyl)benzamide], for which the IC50 at IRAK1 and on IRAK4 was not above 100 nM throughout.
For the compound `O=C(/N=c1\[nH]c2cc(N3CCCOC3=O)ccc2n1CC1COC1)c1cccc(C(F)(F)F)c1` [Compound 158, (E)-N-(1-(oxetan-3-ylmethyl)-5-(2-oxo-1,3-oxazinan-3-yl)-1H-benzo[d]imidazol-2(3H)-ylidene)-3-(trifluoromethyl)benzamide], the IC50 is 100 to 1000 nM on IRAK1 and not above 100 nM at IRAK4.
With `O=C(/N=c1\[nH]c2cc(N3CCCOC3=O)ccc2n1CC1COC1)c1cccc(C(F)F)c1` [Compound 159, (E)-3-(difluoromethyl)-N-(1-(oxetan-3-ylmethyl)-5-(2-oxo-1,3-oxazinan-3-yl)-1H-benzo[d]imidazol-2(3H)-ylidene)benzamide], the figures for the 50% inhibitory concentration (IC50) on IRAK1 and at IRAK4 were 100 to 1000 nM and not above 100 nM, respectively.
For `O=C(/N=c1\[nH]c2cc(N3CCCOC3=O)ccc2n1CC1CCCCO1)c1cccc(C(F)F)c1` (centres unmarked) [Compound 160, (E)-3-(difluoromethyl)-N-(5-(2-oxo-1,3-oxazinan-3-yl)-1-((tetrahydro-2H-pyran-2-yl)methyl)-1H-benzo[d]imidazol-2(3H)-ylidene)benzamide], the values for the IC50 on IRAK1 and on IRAK4 were 100 to 1000 nM and not above 100 nM, respectively.
As to `N#Cc1cccc(C(=O)/N=c2\[nH]c3cc(N4CCCOC4=O)ccc3n2CC2CCCCO2)c1` (centres unmarked) [Compound 161, (E)-3-cyano-N-(5-(2-oxo-1,3-oxazinan-3-yl)-1-((tetrahydro-2H-pyran-2-yl)methyl)-1H-benzo[d]imidazol-2(3H)-ylidene)benzamide], the IC50 at IRAK1 and at IRAK4 was not above 100 nM throughout.
`O=C(/N=c1\[nH]c2cc(N3CCCOC3=O)ccc2n1CC1(O)CCCC1)c1cccc(C(F)(F)F)c1` [Compound 162, (E)-N-(1-((1-hydroxycyclopentyl)methyl)-5-(2-oxo-1,3-oxazinan-3-yl)-1H-benzo[d]imidazol-2(3H)-ylidene)-3-(trifluoromethyl)benzamide]: the IC50 at IRAK1 and on IRAK4 was not above 100 nM throughout.
With `O=C(/N=c1\[nH]c2cc(N3CCOCC3=O)ccc2n1CCCO)c1cccc(-c2ccn(CC(F)(F)F)c(=O)c2)c1` [Compound 163, (E)-N-(1-(3-hydroxypropyl)-5-(3-oxomorpholino)-1H-benzo[d]imidazol-2(3H)-ylidene)-3-(2-oxo-1-(2,2,2-trifluoroethyl)-1,2-dihydropyridin-4-yl)benzamide], the IC50 is 100 to 1000 nM at IRAK1 and not above 100 nM at IRAK4.
Regarding `O=C(/N=c1\[nH]c2cc(N3CCOCC3=O)ccc2n1CCCO)c1cccc(-c2ccn(C(F)F)c(=O)c2)c1` [Compound 164, (E)-3-(1-(difluoromethyl)-2-oxo-1,2-dihydropyridin-4-yl)-N-(1-(3-hydroxypropyl)-5-(3-oxomorpholino)-1H-benzo[d]imidazol-2(3H)-ylidene)benzamide], the IC50 is 100 to 1000 nM on IRAK1 and not above 100 nM on IRAK4.
Regarding `CN1CCC(n2/c(=N/C(=O)c3cccc(C(F)F)c3)[nH]c3cc(N4CCOCC4=O)ccc32)CC1` [Compound 165, (E)-3-(difluoromethyl)-N-(1-(1-methylpiperidin-4-yl)-5-(3-oxomorpholino)-1H-benzo[d]imidazol-2(3H)-ylidene)benzamide], the IC50 on IRAK1 and at IRAK4 was 100 to 1000 nM in each case.
Consider `O=C(O)CCn1/c(=N/C(=O)c2cccc(C(F)(F)F)c2)[nH]c2cc(N3CCOCC3=O)ccc21` [Compound 166, (E)-3-(5-(3-oxomorpholino)-2-((3-(trifluoromethyl)benzoyl)imino)-2,3-dihydro-1H-benzo[d]imidazol-1-yl)propanoic acid], for which the values for the IC50 on IRAK1 and on IRAK4 were more than 1000 nM and not above 100 nM, respectively.
Regarding `O=C(O)Cn1/c(=N/C(=O)c2cccc(C(F)(F)F)c2)[nH]c2cc(N3CCOCC3=O)ccc21` [Compound 167, (E)-2-(5-(3-oxomorpholino)-2-((3-(trifluoromethyl)benzoyl)imino)-2,3-dihydro-1H-benzo[d]imidazol-1-yl)acetic acid], the IC50 at IRAK1 and on IRAK4 was more than 1000 nM in each case.
On to `O=C(O)CCCn1/c(=N/C(=O)c2cccc(C(F)(F)F)c2)[nH]c2cc(N3CCCOC3=O)ccc21` [Compound 168, (E)-4-(5-(2-oxo-1,3-oxazinan-3-yl)-2-((3-(trifluoromethyl)benzoyl)imino)-2,3-dihydro-1H-benzo[d]imidazol-1-yl)butanoic acid], for which the IC50 at IRAK1 is more than 1000 nM; on IRAK4, not above 100 nM.
`O=C(O)CCCn1/c(=N/C(=O)c2cccc(C(F)F)c2)[nH]c2cc(N3CCCOC3=O)ccc21` [Compound 169, (E)-4-(2-((3-(difluoromethyl)benzoyl)imino)-5-(2-oxo-1,3-oxazinan-3-yl)-2,3-dihydro-1H-benzo[d]imidazol-1-yl)butanoic acid]: the IC50 was more than 1000 nM at IRAK1 and not above 100 nM at IRAK4.
On the same counts, the results for `O=C(/N=c1\[nH]c2cc(N3CCCOC3=O)ccc2n1C1CCC1)c1cccc(C(F)(F)F)c1` [Compound 170, (E)-N-(1-cyclobutyl-5-(2-oxo-1,3-oxazinan-3-yl)-1H-benzo[d]imidazol-2(3H)-ylidene)-3-(trifluoromethyl)benzamide] are more than 1000 nM and not above 100 nM.
For `O=C(/N=c1\[nH]c2cc(N3CCCOC3=O)ccc2n1C1CCCC1)c1cccc(C(F)(F)F)c1` [Compound 171, (E)-N-(1-cyclopentyl-5-(2-oxo-1,3-oxazinan-3-yl)-1H-benzo[d]imidazol-2(3H)-ylidene)-3-(trifluoromethyl)benzamide], the results for the IC50 at IRAK1 and at IRAK4 were more than 1000 nM and not above 100 nM, respectively.
On to `O=C(/N=c1\[nH]c2cc(N3CCCOC3=O)ccc2n1C1CC1)c1cccc(C(F)(F)F)c1` [Compound 172, (E)-N-(1-cyclopropyl-5-(2-oxo-1,3-oxazinan-3-yl)-1H-benzo[d]imidazol-2(3H)-ylidene)-3-(trifluoromethyl)benzamide], for which the IC50 on IRAK1 was more than 1000 nM; at IRAK4 it was not above 100 nM.
Turning to `CC(C)(C)Cn1/c(=N/C(=O)c2cccc(C(F)(F)F)c2)[nH]c2cc(N3CCCOC3=O)ccc21` [Compound 173, (E)-N-(1-neopentyl-5-(2-oxo-1,3-oxazinan-3-yl)-1H-benzo[d]imidazol-2(3H)-ylidene)-3-(trifluoromethyl)benzamide], the results for the IC50 at IRAK1 and on IRAK4 were 100 to 1000 nM and not above 100 nM, respectively.
As to `O=C(/N=c1\[nH]c2cc(N3CCCOC3=O)ccc2n1CC1(C(=O)O)CC1)c1cccc(C(F)(F)F)c1` [Compound 174, (E)-1-((5-(2-oxo-1,3-oxazinan-3-yl)-2-((3-(trifluoromethyl)benzoyl)imino)-2,3-dihydro-1H-benzo[d]imidazol-1-yl)methyl)cyclopropanecarboxylic acid], the concentration for half-maximal inhibition (IC50) at IRAK1 is 100 to 1000 nM; on IRAK4, not above 100 nM.

The values above are taken from patent US10059701B2 (Merck Patent GmbH, priority 2015, dated 2018).
